Measured values taken from patent publication US8906904B2, “Alkoxy pyrazoles as soluble guanylate cyclase activators” (Boehringer Ingelheim International GmbH, priority 2012, dated 2014).
Converted amounts (≈) assume the structure as drawn.

How the values were obtained:
[1] = target: T1, human soluble guanylate cyclase alpha 1 and beta 1 subunits (sGC) (Homo sapiens, UniProt Q02108+Q02153); assay: sGC cellular activator assay (cGMP, HTRF); format: cell-based; conditions: CHO cells stably expressing human sGC alpha 1/beta 1, preincubated with 40 microM ODQ; cGMP readout; assay run with and without 50% human serum, Table 2 does not say which
T1 construct: expressed in transfected cells; host or cells: Chinese hamster ovary (CHO) cells, stably transfected
T1 sequence (Q02108 1-690): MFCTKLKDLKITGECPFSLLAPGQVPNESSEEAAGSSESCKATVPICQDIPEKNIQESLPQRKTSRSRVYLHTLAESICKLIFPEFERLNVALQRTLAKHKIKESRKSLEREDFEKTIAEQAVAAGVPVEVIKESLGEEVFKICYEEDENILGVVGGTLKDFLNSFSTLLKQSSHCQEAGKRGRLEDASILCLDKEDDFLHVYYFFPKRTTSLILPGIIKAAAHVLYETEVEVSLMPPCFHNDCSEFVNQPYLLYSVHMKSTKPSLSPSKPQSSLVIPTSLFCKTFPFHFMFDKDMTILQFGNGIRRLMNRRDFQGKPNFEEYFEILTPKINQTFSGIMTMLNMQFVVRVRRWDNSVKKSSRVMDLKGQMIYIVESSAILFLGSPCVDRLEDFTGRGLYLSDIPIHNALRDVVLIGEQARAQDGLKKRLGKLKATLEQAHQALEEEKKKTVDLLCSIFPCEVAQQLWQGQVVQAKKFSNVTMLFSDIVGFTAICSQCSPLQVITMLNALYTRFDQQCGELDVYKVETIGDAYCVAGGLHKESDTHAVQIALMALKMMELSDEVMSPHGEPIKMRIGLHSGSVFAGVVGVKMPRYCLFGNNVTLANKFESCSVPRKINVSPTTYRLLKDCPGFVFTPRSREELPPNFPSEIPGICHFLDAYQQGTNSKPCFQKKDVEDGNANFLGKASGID
T1 sequence (Q02153 1-619): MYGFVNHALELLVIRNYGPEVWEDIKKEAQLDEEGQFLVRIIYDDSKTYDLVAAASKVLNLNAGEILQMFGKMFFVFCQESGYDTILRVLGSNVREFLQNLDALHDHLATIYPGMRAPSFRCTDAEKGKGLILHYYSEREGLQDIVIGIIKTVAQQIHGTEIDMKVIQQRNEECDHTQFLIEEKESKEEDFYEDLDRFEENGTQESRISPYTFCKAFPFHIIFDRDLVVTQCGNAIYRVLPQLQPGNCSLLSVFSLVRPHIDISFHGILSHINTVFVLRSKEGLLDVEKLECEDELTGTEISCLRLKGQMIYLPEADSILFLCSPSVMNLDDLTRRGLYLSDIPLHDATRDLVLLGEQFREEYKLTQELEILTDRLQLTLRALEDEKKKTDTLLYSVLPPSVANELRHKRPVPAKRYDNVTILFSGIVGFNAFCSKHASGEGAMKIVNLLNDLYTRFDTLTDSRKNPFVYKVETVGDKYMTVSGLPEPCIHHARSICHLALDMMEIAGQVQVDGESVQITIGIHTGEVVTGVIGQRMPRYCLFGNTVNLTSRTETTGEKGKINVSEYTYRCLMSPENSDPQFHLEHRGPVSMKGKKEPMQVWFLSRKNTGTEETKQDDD
Method: The sGC cellular activator assay is performed in the presence and absence of 50% human serum (HS) using Chinese hamster ovary cells that have been stably transfected to express the human soluble guanylate cyclase alpha 1 and beta 1 subunits (sGC). Cells are preincubated with 40 microM 1H-[1,2,4]oxadiazolo[4,3-a]quinoxalin-1-one (ODQ), an sGC inhibitor, for one h in buffer containing 0.1% bovine serum albumin and 3-isobutyl-1-methylxanthine (IBMX). Concentration response curves are prepared for test compounds in DMSO. An intermediate dilution of the compounds is performed in either buffer containing IBMX or type AB HS containing IBMX. Diluted compounds are added to cells and they are incubated at room temperature for thirty min. cGMP is measured using a CisBio homogeneous time resolved fluorescence kit and the EC50 is calculated for each compound.
Representative compounds of the present invention were tested for activity the above assay. Preferred compounds have an EC50 of <1,000 nM in the above assay and more preferred compounds have an EC50<200 nM.

[2] = human liver microsome (HLM) metabolic stability assay; format: in vitro ADME; conditions: human liver microsomes; % hepatic blood flow calculated from t1/2
Method: The 5 time point, high-throughput human liver microsome (HLM) metabolic stability assay is designed to determine in vitro compound metabolism. Compounds are incubated with HLMs at a concentration of 1 uM, at 37° C., for a total of 60 min. The percent of compound remaining at 5, 15, 30, and 60 min is used to calculate the t½ (min), CLint (mL/min/kg), CLh (mL/min/kg), and % Qh. The assay is based on a 96-well format and can accommodate up to 92 compounds per plate (n=1).
Using the 96-well multi-channel head, the Biomek FX, equipped with a Peltier heating block/shaker, is programmed to accomplish the following steps: • 1. Pipette 175 uL of 1.15 mg/mL microsomes into each of the 96 conical inserts (Analytical Sales and Products, catalog number 96PL05) that fit into the plate of the Peltier heating block/shaker (the incubation plate) • 2. Add 5 uL of compounds from the assay plate to the microsomes and shake the mixture at 600 rpm at 42.1° C. for 10 min (a setting of 42.1° C. on the Peltier is required for the samples to incubate at 37° C.) • 3. After 10 min, prompt the user to add the NADPH plate to the deck and add 20 uL from the NADPH plate to the incubation plate to start the reaction • 4. Add 215 uL of 100%, cold acetonitrile containing an internal standard(s) to a 0 minute, 5 minute, 15 minute, 30 minute, and 60 minute “quench” plate • 5. At 0 min, 5 min, 15 min, 30 min, and 60 min into the incubation, aspirate 12 uL from the incubation mixture and add it to the quench solution to stop the reaction • 6. Add 185 uL HPLC grade water to each well of the 0, 5, 15, 30 and 60 minute quench plates to dilute compounds to the appropriate concentration for the mass spectrometer
After all time points are collected, the quench plates are sealed with 96-well pierceable plate mats or heat sealing foil and centrifuged at 3000 rpm for 15 min to pellet the microsomes.
The plates are analyzed using LC/MS/MS with electron spray ionization (ESI) and the previously determined MRM transitions. The LC method includes the following parameters:
Using an Excel template in Activitybase, the peak areas corresponding to 5, 15, 30 and 60 min are compared to the peak area at 0 min to calculate the percent of remaining compound using the following equation: Percent compound remaining=(AUC at Time t min/AUC at Time 0 min)×100 where t=0, 5, 15, 30 or 60 min.
Time (min) is plotted against the natural logarithm (Ln) of the percent compound remaining to determine the slope. The slope is used to calculate t½ (min) using the equation, t½=0.693/slope.
Preferred compounds have % Qh values of less than 24.

[3] = Assessment of solubility (McIlvaine buffers, 24 h shake, UPLC-UV); format: physicochemical; conditions: kinetic from dmso stock
Method: Solubility is measured by the following method.
100 uL, 10 mM DMSO stock solution of each compound is prepared in a 96 well plate format. The experiment is done in single determination at 3 pH values (2.2, 4.5 and 6.8). For each pH and one reference, 40 uL of each compound is needed.
McIlvaine pH 2.2: To 2.076 g citric acid monohydrate and 0.043 g Na2HPO4×2H2O add 100 ml deionized water
McIlvaine pH 4.5: To 1.166 g citric acid monohydrate and 1.585 g Na2HPO4×2H2O add 100 ml deionized water
McIlvaine pH 6.8: To 0.476 g citric acid monohydrate and 2.753 g Na2HPO4×2H2O add 100 ml deionized water
With a suitable liquid handling device (Multipette® or a liquid handler) 390 uL of each buffer solution and 10 uL of compound is added to each well of a 96 deep well plate. The plates are covered firmly and shaken for 24 h on an over head shaker (at 54 RPM) at room temperature. The DMSO content in the final buffer is 2.5% v/v.
After 24 h the plates are centrifuged to remove droplets on the lid before opening (for ˜5 min at 2500 RPM).
The filtration is done under vacuum with Millipore 96 well filter plate. Filtrate is collected in a deep well plate and transferred to a suitable plate for UPLC analysis.
The reference plate is prepared by adding 10 uL of compound to 390 uL of 50:50 acetonitrile/water in a 96 deep well plate and transferred to a suitable plate for UPLC analysis. Wells are checked visually for precipitation, any presence noted under comments in reported results.
The samples are measured with UPLC-UV using the chromatographic method described below.
Waters Empower®2 software is used for generating Sample Sets (according to the plate layout), Sample Set Methods and Instrument Methods.
One Sample Set comprises the methods for three 96 well plates (one reference plate and two sample plates, and includes one Sample Set Method and one Instrument Method).
3. Data Processing and Analysis
The UV chromatograms collected at 254 nm are integrated and processed.
It is assumed that the compound is completely dissolved in the reference solution (50:50 acetonitrile/water)

SMILES	EC50 [1] [nM]	HLM (% Qh) [2] [% Qh]	solubility at 24 h ([3]; pH 2.2, aqueous buffer) [µg/mL]	solubility at 24 h ([3]; pH 4.5, aqueous buffer) [µg/mL]	solubility at 24 h ([3]; pH 6.8, aqueous buffer) [µg/mL]
CCOc1c(C(=O)O)cnn1-c1cccc(-c2cccc(C)c2OCc2ccc3c(c2)CCNC3)n1 [Compound 60]		<24	117 (≈ 241 µM)	96 (≈ 198 µM)	100 (≈ 206 µM)
COc1c(C(=O)O)cnn1-c1cccc(-c2cccc(C)c2OCc2ccc3c(c2)CN(C2CCOCC2)C3)n1 [Compound 59]	31	<24			
CCOc1c(C(=O)O)cnn1-c1cccc(-c2cccc(C)c2OCc2ccc3c(c2C)CCN(C(CO)CO)C3)n1 [Compound 156]	720	<24			
COc1c(C(=O)O)cnn1-c1cccc(-c2cccc(C)c2OCc2cc(C)c3c(c2)CN(C2COC2)C3)n1 [Compound 258]	15	<24			
CCOc1c(C(=O)O)cnn1-c1cccc(-c2cccc(C)c2OCc2ccc3c(c2)CN(C2CCOCC2)C3)n1 [Compound 216]	110	<24			
COc1c(C(=O)O)cnn1-c1cccc(-c2cccc(C)c2OCc2ccc3c(c2C)CN(C2COC2)C3)n1 [Compound 257]	14	<24			
Cc1cccc(-c2cccc(-n3ncc(C(=O)O)c3OC(C)C)n2)c1OCc1ccc2c(c1C)CCN([C@@H]1CCCOC1)C2 [Compound 116]	28	<24			
COc1c(C(=O)O)cnn1-c1cccc(-c2cccc(C)c2OCc2cc(C)c3c(c2C)CN(S(=O)(=O)c2ccc(C)cc2)C3)n1 [Compound 138]	54	68			

Next, values leading:

EC50 [1] [nM]	HLM (% Qh) [2] [% Qh]	solubility at 24 h ([3]; pH 2.2, aqueous buffer) [µg/mL]	solubility at 24 h ([3]; pH 4.5, aqueous buffer) [µg/mL]	solubility at 24 h ([3]; pH 6.8, aqueous buffer) [µg/mL]	SMILES
14	<24				COc1c(C(=O)O)cnn1-c1cccc(-c2cccc(C)c2OCc2ccc3c(c2C)CN(C2CCOCC2)C3)n1 [Compound 256]
6.5	<24				COc1c(C(=O)O)cnn1-c1cccc(-c2cccc(C)c2OCc2cc(C)c3c(c2C)CN(CC2COCCO2)C3)n1 (centres unmarked) [Compound 246]
10	<24				COc1c(C(=O)O)cnn1-c1cccc(-c2cccc(C)c2OCc2ccc3c(c2)CCN(C[C@H]2CCOC2)C3)n1 [Compound 192]
9.5	<24				COc1c(C(=O)O)cnn1-c1cccc(-c2cccc(C)c2OCc2cc(C)c3c(c2)CN(C2CCOCC2)C3)n1 [Compound 255]
